US10829520B2, “Beta-hairpin peptidomimetics” (POLYPHOR AG, priority 2015, dated 2020)
Where a SMILES comes first, the peptide text is derived from it. Bridges are numbered along the chain shown (N, C = ends). [ ]: non-standard residue; d: D form. Cha = N[C@@H](CC1CCCCC1)C(=O)O; aThr = C[C@H](O)[C@H](N)C(=O)O; Tle = CC(C)(C)[C@H](N)C(=O)O; dDab = NCC[C@@H](N)C(=O)O; dPip = O=C(O)[C@H]1CCCCN1; Nle = CCCC[C@H](N)C(=O)O; Orn = NCCC[C@H](N)C(=O)O; Dab = NCC[C@H](N)C(=O)O; Dap = NC[C@H](N)C(=O)O

Assays:
Assay type in all cases: cell-based
[1] = test system: human red blood cells (hRBC); assay: Hemolysis of human red blood cells; conditions: red cells of human, 1 h, 100 μg/mL
In short: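 Peptides at 100 μg/mL were incubated with PBS-washed fresh human erythrocytes (20% v/v, ~0.9×10^9 cells/mL final) for 1 h at 37° C. with shaking. Supernatant OD540 was read after 8-fold dilution; percent hemolysis was expressed relative to the 2.5% Triton X-100 full-lysis control, with PBS/0.001% acetic acid as 0%.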

[2] = test system: Acinetobacter baumannii 872842; conditions: 872842
[3] = test system: Klebsiella pneumoniae SSI #3010; conditions: SSI #3010
In short: (§1)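 Broth microdilution per CLSI, cation-adjusted MH-II medium, 0.002% (v/v) polysorbate 80 final. Approx. 10^6 CFU/mL inoculum, incubated 35° C for 18-20 h; MIC read as absence of visible growth.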

[4] = test system: Pseudomonas aeruginosa ATCC 27853; conditions: ATCC 27853
In short: as §1

[5] = test system: Klebsiella pneumoniae 968733; conditions: 968733
[6] = test system: Acinetobacter baumannii DSM 30008; conditions: DSM 30008
In short: as §1

[7] = test system: Escherichia coli 926415; conditions: 926415
[8] = test system: Escherichia coli ATCC 25922; conditions: ATCC 25922
In short: as §1

## CCCC[C@@H]1NC(=O)[C@@H]2CCCN2C(=O)[C@H]2CCCN2C(=O)[C@H](CO)NC(=O)[C@H](CO)NC(=O)[C@H](C(C)(C)C)NC(=O)[C@@H](NC(=O)[C@@H](N)Cc2c[nH]c3ccccc23)CSSC[C@@H](C(=O)N[C@H](Cc2ccc(O)cc2)C(=O)N[C@@H](CCN)C(=O)N[C@@H](CCN)C(=O)N[C@H]2CCNC(=O)[C@H]([C@@H](C)O)NC(=O)[C@H](CCN)NC(=O)[C@H](CCN)NC(=O)[C@H](CC(C)C)NC(=O)[C@@H](Cc3ccccc3)NC(=O)[C@H](CCN)NC2=O)NC(=O)[C@H](Cc2ccc(O)cc2)NC(=O)[C@H](CO)NC1=O [Ex. 109] (H-WC[Tle]SS[dP]P[Nle]SYC[dY][Dab][Dab][Dab][Dab][dF]L[Dab][Dab]T; disulfide 2-11; lactam 15-C)
[1]
  Hemolysis at 100 μg/mL: <1%
[2]
  Acinetobacter baumannii 872842 MIC: 0.5 µg/mL
[3]
  Klebsiella pneumoniae SSI #3010 MIC: 1 µg/mL
[4]
  Pseudomonas aeruginosa ATCC 27853 MIC: 1 µg/mL
[5]
  Klebsiella pneumoniae 968733 MIC: 1 µg/mL
[6]
  Acinetobacter baumannii DSM 30008 MIC: 0.5 µg/mL
[7]
  Escherichia coli 926415 MIC: 0.5 µg/mL
[8]
  Escherichia coli ATCC 25922 MIC: 0.25 µg/mL

## CC(=O)N[C@@H](Cc1c[nH]c2ccccc12)C(=O)N[C@H]1CSSC[C@@H](C(=O)N[C@@H](CCCN)C(=O)N[C@H](CCN)C(=O)N[C@@H](CCN)C(=O)N[C@H]2CCNC(=O)[C@H]([C@@H](C)O)NC(=O)[C@H](CCN)NC(=O)[C@H](CCN)NC(=O)[C@H](CC(C)C)NC(=O)[C@@H](Cc3ccccc3)NC(=O)[C@H](CCN)NC2=O)NC(=O)[C@H](Cc2ccc(O)cc2)NC(=O)[C@H](CN)NC(=O)[C@H](Cc2ccccc2)NC(=O)[C@H](CC(C)C)NC(=O)[C@H]2CCCN2C(=O)[C@H](CO)NC(=O)[C@H](C)NC(=O)[C@H](C(C)(C)C)NC1=O [Ex. 110] (Ac-WC[Tle]AS[dP]LF[Dap]YC[Orn][dDab][Dab][Dab][Dab][dF]L[Dab][Dab]T; disulfide 2-11; lactam 15-C)
[1]
  Hemolysis at 100 μg/mL: 2%
[2]
  Acinetobacter baumannii 872842 MIC: 0.25 µg/mL
[3]
  Klebsiella pneumoniae SSI #3010 MIC: 0.5 µg/mL
[4]
  Pseudomonas aeruginosa ATCC 27853 MIC: 1 µg/mL
[5]
  Klebsiella pneumoniae 968733 MIC: 2 µg/mL
[6]
  Acinetobacter baumannii DSM 30008 MIC: 0.25 µg/mL
[7]
  Escherichia coli 926415 MIC: 0.25 µg/mL
[8]
  Escherichia coli ATCC 25922 MIC: 0.5 µg/mL

## CC(=O)N[C@@H](Cc1c[nH]c2ccccc12)C(=O)N[C@H]1CSSC[C@@H](C(=O)N[C@@H](CCCN)C(=O)N[C@H](C(=O)N[C@@H](CCN)C(=O)N[C@H]2CCNC(=O)[C@H]([C@@H](C)O)NC(=O)[C@H](CCN)NC(=O)[C@H](CCN)NC(=O)[C@H](CC(C)C)NC(=O)[C@@H](Cc3ccccc3)NC(=O)[C@H](CCN)NC2=O)[C@@H](C)O)NC(=O)[C@H](Cc2ccc(O)cc2)NC(=O)[C@H](CO)NC(=O)[C@H](CC(C)C)NC(=O)[C@@H]2CCCN2C(=O)[C@H]2CCCN2C(=O)[C@H](CO)NC(=O)[C@H](C)NC(=O)[C@H](Cc2c[nH]c3ccccc23)NC1=O [Ex. 111] (Ac-WCWAS[dP]PLSYC[Orn]T[Dab][Dab][Dab][dF]L[Dab][Dab]T; disulfide 2-11; lactam 15-C)
[1]
  Hemolysis at 100 μg/mL: 2%
[2]
  Acinetobacter baumannii 872842 MIC: 0.25 µg/mL
[3]
  Klebsiella pneumoniae SSI #3010 MIC: 1 µg/mL
[4]
  Pseudomonas aeruginosa ATCC 27853 MIC: 1 µg/mL
[5]
  Klebsiella pneumoniae 968733 MIC: 1 µg/mL
[6]
  Acinetobacter baumannii DSM 30008 MIC: 0.25 µg/mL
[7]
  Escherichia coli 926415 MIC: 0.25 µg/mL
[8]
  Escherichia coli ATCC 25922 MIC: 0.25 µg/mL

## CC(=O)N[C@@H](Cc1c[nH]c2ccccc12)C(=O)N[C@H]1CSSC[C@@H](C(=O)N[C@@H](CCCN)C(=O)N[C@@H](CCN)C(=O)N[C@@H](CCN)C(=O)N[C@H]2CCNC(=O)[C@H]([C@@H](C)O)NC(=O)[C@H](CCN)NC(=O)[C@H](CCN)NC(=O)[C@H](CC(C)C)NC(=O)[C@@H](Cc3ccccc3)NC(=O)[C@H](CCN)NC2=O)NC(=O)[C@H](Cc2ccc(O)cc2)NC(=O)[C@H](CO)NC(=O)[C@H](CC(C)C)NC(=O)[C@@H]2CCCN2C(=O)[C@H]2CCCN2C(=O)[C@H](CO)NC(=O)[C@@H](C)NC(=O)[C@H](C(C)(C)C)NC1=O [Ex. 112] (Ac-WC[Tle][dA]S[dP]PLSYC[Orn][Dab][Dab][Dab][Dab][dF]L[Dab][Dab]T; disulfide 2-11; lactam 15-C)
[1]
  Hemolysis at 100 μg/mL: 1%
[2]
  Acinetobacter baumannii 872842 MIC: 1 µg/mL
[3]
  Klebsiella pneumoniae SSI #3010 MIC: 0.5 µg/mL
[4]
  Pseudomonas aeruginosa ATCC 27853 MIC: 4 µg/mL
[5]
  Klebsiella pneumoniae 968733 MIC: 0.5 µg/mL
[6]
  Acinetobacter baumannii DSM 30008 MIC: 1 µg/mL
[7]
  Escherichia coli 926415 MIC: 1 µg/mL
[8]
  Escherichia coli ATCC 25922 MIC: 1 µg/mL

## CC(=O)N[C@@H](Cc1c[nH]c2ccccc12)C(=O)N[C@H]1CSSC[C@@H](C(=O)N[C@@H](CCCN)C(=O)N[C@H](C(=O)N[C@@H](CCN)C(=O)N[C@H]2CCNC(=O)[C@H]([C@@H](C)O)NC(=O)[C@H](CCN)NC(=O)[C@H](CCN)NC(=O)[C@H](CC(C)C)NC(=O)[C@@H](Cc3ccccc3)NC(=O)[C@H](CCN)NC2=O)[C@@H](C)O)NC(=O)[C@H](CC2CCCCC2)NC(=O)[C@H](Cc2c[nH]cn2)NC(=O)[C@H](CC(C)C)NC(=O)[C@@H]2CCCN2C(=O)[C@H]2CCCN2C(=O)[C@H]([C@H](C)O)NC(=O)[C@H](C)NC(=O)[C@H](C(C)(C)C)NC1=O [Ex. 113] (Ac-WC[Tle]A[aThr][dP]PLH[Cha]C[Orn]T[Dab][Dab][Dab][dF]L[Dab][Dab]T; disulfide 2-11; lactam 15-C)
[1]
  Hemolysis at 100 μg/mL: 5%
[2]
  Acinetobacter baumannii 872842 MIC: 0.25 µg/mL
[3]
  Klebsiella pneumoniae SSI #3010 MIC: 2 µg/mL
[4]
  Pseudomonas aeruginosa ATCC 27853 MIC: 1 µg/mL
[5]
  Klebsiella pneumoniae 968733 MIC: 4 µg/mL
[6]
  Acinetobacter baumannii DSM 30008 MIC: 1 µg/mL
[7]
  Escherichia coli 926415 MIC: 0.5 µg/mL
[8]
  Escherichia coli ATCC 25922 MIC: 1 µg/mL

## CC(C)C[C@@H]1NC(=O)[C@@H](Cc2ccccc2)NC(=O)[C@H](CCN)NC(=O)[C@@H](NC(=O)[C@H](CCN)NC(=O)[C@@H](NC(=O)[C@H](CCN)NC(=O)[C@@H]2CSSC[C@H](NC(=O)[C@@H](N)Cc3c[nH]c4ccccc34)C(=O)N[C@@H](C(C)(C)C)C(=O)N[C@@H](C)C(=O)N[C@@H](CO)C(=O)N3CCCC[C@@H]3C(=O)N3CCC[C@H]3C(=O)N[C@@H](CC(C)C)C(=O)N[C@@H](CO)C(=O)N[C@@H](Cc3ccc(O)cc3)C(=O)N2)[C@@H](C)O)CCNC(=O)[C@H]([C@@H](C)O)NC(=O)[C@H](CCN)NC(=O)[C@H](CCN)NC1=O [Ex. 114] (H-WC[Tle]AS[dPip]PLSYC[Dab]T[Dab][Dab][Dab][dF]L[Dab][Dab]T; disulfide 2-11; lactam 15-C)
[1]
  Hemolysis at 100 μg/mL: 6%
[2]
  Acinetobacter baumannii 872842 MIC: 0.125 µg/mL
[3]
  Klebsiella pneumoniae SSI #3010 MIC: 0.25 µg/mL
[4]
  Pseudomonas aeruginosa ATCC 27853 MIC: 0.5 µg/mL
[5]
  Klebsiella pneumoniae 968733 MIC: 0.5 µg/mL
[6]
  Acinetobacter baumannii DSM 30008 MIC: 0.5 µg/mL
[7]
  Escherichia coli 926415 MIC: 0.0625 µg/mL
[8]
  Escherichia coli ATCC 25922 MIC: 0.125 µg/mL

## CC(=O)N[C@@H](Cc1c[nH]c2ccccc12)C(=O)N[C@H]1CSSC[C@@H](C(=O)N[C@@H](CCN)C(=O)N[C@@H](CCN)C(=O)N[C@@H](CCN)C(=O)N[C@H]2CCNC(=O)[C@H]([C@@H](C)O)NC(=O)[C@H](CCN)NC(=O)[C@H](CCN)NC(=O)[C@H](CC(C)C)NC(=O)[C@@H](Cc3ccccc3)NC(=O)[C@H](CCN)NC2=O)NC(=O)[C@H](Cc2ccc(O)cc2)NC(=O)[C@H]([C@@H](C)O)NC(=O)[C@H](CC(C)C)NC(=O)[C@H](CCCNC(=N)N)NC(=O)[C@H]2CCCN2C(=O)[C@H](C(C)C)NC(=O)[C@H]([C@@H](C)O)NC(=O)[C@H](C(C)C)NC1=O [Ex. 115] (Ac-WCVTV[dP]RLTYC[Dab][Dab][Dab][Dab][Dab][dF]L[Dab][Dab]T; disulfide 2-11; lactam 15-C)
[1]
  Hemolysis at 100 μg/mL: 1%
[2]
  Acinetobacter baumannii 872842 MIC: 0.5 µg/mL
[3]
  Klebsiella pneumoniae SSI #3010 MIC: 0.5 µg/mL
[4]
  Pseudomonas aeruginosa ATCC 27853 MIC: 0.5 µg/mL
[5]
  Klebsiella pneumoniae 968733 MIC: 1 µg/mL
[6]
  Acinetobacter baumannii DSM 30008 MIC: 0.5 µg/mL
[7]
  Escherichia coli 926415 MIC: 0.5 µg/mL
[8]
  Escherichia coli ATCC 25922 MIC: 0.5 µg/mL
